Measurements: ChEMBL document CHEMBL5316328, “Discovery of AXL Degraders with Improved Potencies in Triple-Negative Breast Cancer (TNBC) Cells” (J Med Chem, 2023)
pIC50: −log10 of the molar value. Calls of active or inactive are those of the source. The rule behind the calls is not given here.

Columns and labels:
MDA-MB-231 [1] = test: Induction of cell cycle arrest in human MDA-MB-231 cells assessed as accumulation of cell at G2/M phase at 100 nM incubated for 24 hrs by PI staining based flow cytometric analysis (reference value: 24.34 to 24.44%); assay type: functional
MDA-MB-231 [2] = test: Induction of cell cycle arrest in human MDA-MB-231 cells assessed as G0/G1 phase cells at 33.3 nM incubated for 24 hrs by PI staining based flow cytometric analysis (reference value: 63.32 to 64.94%); assay type: functional
MDA-MB-231 [3] = test: Induction of apoptosis in human MDA-MB-231 cells assessed as downregulation of caspase-9 expression by Western blot analysis; assay type: functional, cell-based; settings: dose 11.1-300 nM
[4] = target: T1, Protein cereblon/Tyrosine-protein kinase receptor UFO (Homo sapiens, UniProt P30530+Q96SW2); test: PROTAC activity at CRBN/AXL in human MDA-MB-231 cells assessed as induction of AXL degradation at 10 nM preincubated with more than 5 uM of N-(4-((6,7-dimethoxyquinazolin-4-yl)oxy)-3-fluorophenyl)-6-ethyl-1,2-dimethyl-4-oxo-1,4-dihydroquinoline-3-carboxamide for 6 hrs followed by compound treatment and measured after 24 hrs by Western blot analysis; assay type: cell-based
T1 sequence (P30530 26-894 limits assumed): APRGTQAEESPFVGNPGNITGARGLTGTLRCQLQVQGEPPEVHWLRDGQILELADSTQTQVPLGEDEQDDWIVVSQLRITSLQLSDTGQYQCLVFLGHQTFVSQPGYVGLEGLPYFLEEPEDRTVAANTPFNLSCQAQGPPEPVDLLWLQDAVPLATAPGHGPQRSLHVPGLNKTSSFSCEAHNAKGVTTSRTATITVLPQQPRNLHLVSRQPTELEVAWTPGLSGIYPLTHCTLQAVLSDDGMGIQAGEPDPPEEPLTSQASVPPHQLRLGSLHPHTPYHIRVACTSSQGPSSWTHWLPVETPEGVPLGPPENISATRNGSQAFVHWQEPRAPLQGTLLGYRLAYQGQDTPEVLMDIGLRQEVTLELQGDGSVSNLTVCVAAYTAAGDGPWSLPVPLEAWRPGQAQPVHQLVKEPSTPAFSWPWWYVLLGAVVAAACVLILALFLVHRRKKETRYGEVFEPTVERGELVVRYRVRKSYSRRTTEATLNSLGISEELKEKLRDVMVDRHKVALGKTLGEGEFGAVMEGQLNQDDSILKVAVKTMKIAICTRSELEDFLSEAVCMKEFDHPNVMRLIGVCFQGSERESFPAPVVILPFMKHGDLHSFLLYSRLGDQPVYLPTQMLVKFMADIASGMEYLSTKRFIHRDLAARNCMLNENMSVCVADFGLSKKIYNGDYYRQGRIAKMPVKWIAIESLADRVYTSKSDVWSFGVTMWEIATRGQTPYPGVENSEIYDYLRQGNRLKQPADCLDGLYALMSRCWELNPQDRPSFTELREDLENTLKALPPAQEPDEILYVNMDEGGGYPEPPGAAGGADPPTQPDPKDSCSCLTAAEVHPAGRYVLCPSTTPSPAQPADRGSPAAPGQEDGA
T1 sequence (Q96SW2 whole entry partner): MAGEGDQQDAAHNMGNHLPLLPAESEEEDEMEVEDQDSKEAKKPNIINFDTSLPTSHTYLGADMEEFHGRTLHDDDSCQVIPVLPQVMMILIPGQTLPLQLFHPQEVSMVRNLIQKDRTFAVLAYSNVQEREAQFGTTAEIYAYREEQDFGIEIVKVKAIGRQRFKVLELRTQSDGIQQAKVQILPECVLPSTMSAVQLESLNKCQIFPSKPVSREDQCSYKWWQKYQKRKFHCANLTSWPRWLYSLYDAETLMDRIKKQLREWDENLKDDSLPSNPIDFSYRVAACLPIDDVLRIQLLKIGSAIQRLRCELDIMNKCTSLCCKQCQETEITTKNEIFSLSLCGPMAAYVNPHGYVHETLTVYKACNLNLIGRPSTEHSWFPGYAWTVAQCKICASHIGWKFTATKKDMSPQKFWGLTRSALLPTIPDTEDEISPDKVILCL

MDA-MB-231 [5] = test: Induction of cell cycle arrest in human MDA-MB-231 cells assessed as G0/G1 phase cells at 300 nM incubated for 24 hrs by PI staining based flow cytometric analysis (reference value: 63.32 to 64.94%); assay type: functional
MDA-MB-231 [6] = test: Induction of cell cycle arrest in human MDA-MB-231 cells assessed as decrease in cyclin B1 level at 11.1 to 300 nM by Western blot analysis; assay type: functional, cell-based; settings: dose 11.1-300 nM
[7] = target: Serine/threonine-protein kinase AKT (Homo sapiens) (UniProt P31751+Q9Y243+P31749); test: Inhibition of AKT phosphorylation in human MDA-MB-231 incubated for 18 hrs by Western blot analysis; assay type: cell-based; settings: dose 1.2-100 nM
Chain of Serine/threonine-protein kinase AKT (Homo sapiens) (P31749 whole entry, looked up): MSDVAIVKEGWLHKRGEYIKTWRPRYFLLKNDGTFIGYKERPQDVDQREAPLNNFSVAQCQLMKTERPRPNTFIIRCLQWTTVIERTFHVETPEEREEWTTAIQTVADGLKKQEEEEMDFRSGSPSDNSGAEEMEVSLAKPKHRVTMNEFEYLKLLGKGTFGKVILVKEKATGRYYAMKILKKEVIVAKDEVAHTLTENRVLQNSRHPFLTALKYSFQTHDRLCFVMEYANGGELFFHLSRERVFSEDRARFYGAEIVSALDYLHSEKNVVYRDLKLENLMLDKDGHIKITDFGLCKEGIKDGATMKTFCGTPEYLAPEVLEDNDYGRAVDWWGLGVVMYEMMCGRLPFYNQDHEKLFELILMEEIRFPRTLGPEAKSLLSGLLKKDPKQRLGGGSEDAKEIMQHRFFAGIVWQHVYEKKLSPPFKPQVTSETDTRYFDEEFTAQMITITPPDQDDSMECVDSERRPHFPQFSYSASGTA
Chain of Serine/threonine-protein kinase AKT (Homo sapiens) (P31751 whole entry, looked up): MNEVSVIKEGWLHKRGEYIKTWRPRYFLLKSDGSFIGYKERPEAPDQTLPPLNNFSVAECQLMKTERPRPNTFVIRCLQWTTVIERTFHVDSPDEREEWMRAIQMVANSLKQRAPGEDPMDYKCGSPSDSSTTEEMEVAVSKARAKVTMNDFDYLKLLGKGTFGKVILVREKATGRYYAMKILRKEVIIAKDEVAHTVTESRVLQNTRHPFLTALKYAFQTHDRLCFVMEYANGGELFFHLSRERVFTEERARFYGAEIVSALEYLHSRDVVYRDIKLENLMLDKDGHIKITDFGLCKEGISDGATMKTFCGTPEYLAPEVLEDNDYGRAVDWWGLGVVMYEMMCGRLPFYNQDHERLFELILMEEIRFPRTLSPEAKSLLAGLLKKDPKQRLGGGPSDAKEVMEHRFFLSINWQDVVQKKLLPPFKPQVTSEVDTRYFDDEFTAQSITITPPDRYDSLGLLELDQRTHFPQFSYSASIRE
Chain of Serine/threonine-protein kinase AKT (Homo sapiens) (Q9Y243 whole entry, looked up): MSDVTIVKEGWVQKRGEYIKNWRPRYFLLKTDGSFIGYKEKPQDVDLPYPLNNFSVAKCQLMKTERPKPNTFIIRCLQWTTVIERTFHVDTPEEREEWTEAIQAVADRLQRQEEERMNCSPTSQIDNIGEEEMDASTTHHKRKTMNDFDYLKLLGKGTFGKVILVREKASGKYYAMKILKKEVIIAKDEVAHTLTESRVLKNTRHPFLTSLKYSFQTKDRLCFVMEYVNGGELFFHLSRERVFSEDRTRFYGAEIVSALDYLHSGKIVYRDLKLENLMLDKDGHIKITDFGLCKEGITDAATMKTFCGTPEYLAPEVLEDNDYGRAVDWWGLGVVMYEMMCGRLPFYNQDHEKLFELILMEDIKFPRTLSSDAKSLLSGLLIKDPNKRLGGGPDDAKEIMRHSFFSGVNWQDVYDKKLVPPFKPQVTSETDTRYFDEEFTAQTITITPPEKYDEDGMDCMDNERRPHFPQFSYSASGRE

[8] = target: T1, Protein cereblon/Tyrosine-protein kinase receptor UFO; test: PROTAC activity at CRBN/AXL in human MDA-MB-231 cells assessed as induction of AXL degradation by measuring ubiquitination of AXL at 40 nM preincubated with MG-132 for 2 hrs followed by compound treatment and measured after 24 hrs by coimmunoprecipitation analysis; assay type: cell-based
[9] = target: T2, E3 ubiquitin-protein ligase ZFP91 (Homo sapiens) (UniProt Q96JP5); test: Induction of ZFP91 degradation in human MDA-MB-231 cells at 10 uM incubated for 24 hrs by Western blot analysis; assay type: cell-based
T2 sequence (whole entry): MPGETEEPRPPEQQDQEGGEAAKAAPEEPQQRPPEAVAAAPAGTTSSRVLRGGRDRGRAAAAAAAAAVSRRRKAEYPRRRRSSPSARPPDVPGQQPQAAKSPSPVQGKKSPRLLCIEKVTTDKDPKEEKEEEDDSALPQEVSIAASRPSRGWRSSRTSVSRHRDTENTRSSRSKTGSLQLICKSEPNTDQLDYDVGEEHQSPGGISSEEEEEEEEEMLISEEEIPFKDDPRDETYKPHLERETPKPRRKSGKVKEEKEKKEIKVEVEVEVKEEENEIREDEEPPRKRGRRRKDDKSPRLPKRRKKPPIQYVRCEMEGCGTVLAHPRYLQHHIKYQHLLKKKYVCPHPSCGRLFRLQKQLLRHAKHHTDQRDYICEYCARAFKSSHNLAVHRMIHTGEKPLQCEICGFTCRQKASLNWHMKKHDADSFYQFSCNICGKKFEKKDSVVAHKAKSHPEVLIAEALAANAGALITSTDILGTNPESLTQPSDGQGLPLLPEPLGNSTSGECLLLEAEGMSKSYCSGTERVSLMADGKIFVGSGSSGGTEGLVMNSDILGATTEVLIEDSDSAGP

MDA-MB-231 [10] = test: Inhibition of migration in human MDA-MB-231 cells incubated for 18 hrs by transwell assay; assay type: functional, cell-based; settings: dose 3.7-100 nM
MDA-MB-231 [11] = test: Induction of apoptosis in human MDA-MB-231 cells assessed as late apoptotic cells at 100 nM incubated for 48 hrs by Annexin V-PE staining based flow cytometric analysis (reference value: 0.32 to 0.82%); assay type: functional
MDA-MB-231 [12] = test: Induction of apoptosis in human MDA-MB-231 cells assessed as necrotic cells at 300 nM incubated for 48 hrs by Annexin V-PE staining based flow cytometric analysis (reference value: 2.64 to 3.23%); assay type: functional
[13] = target: T1, Protein cereblon/Tyrosine-protein kinase receptor UFO; test: PROTAC activity at CRBN/AXL in human MDA-MB-436 cells expressing AXL assessed as induction of AXL degradation at 1.6 to 1000 nM incubated for 24 hrs by Western blot analysis; assay type: cell-based; settings: dose 1.6-1000 nM
MDA-MB-231 [14] = test: Induction of apoptosis in human MDA-MB-231 cells assessed as viable cells at 33.3 nM incubated for 48 hrs by Annexin V-PE staining based flow cytometric analysis (reference value: 92.59 to 92.71%); assay type: functional; settings: read-out: Activity
Homo sapiens [15] = organism: Homo sapiens; test: Antitumor activity against patient-derived breast cancer organoid assessed as decrease in organoid size at 5 uM incubated for 120 hrs by bright-field imaging microscopic analysis; assay type: functional, tissue-based
[16] = target: Zinc finger protein Aiolos (Homo sapiens) (UniProt Q9UKT9); test: Induction of IKZF3 degradation in human MDA-MB-231 cells at 10 uM incubated for 24 hrs by Western blot analysis; assay type: cell-based
Chain of Zinc finger protein Aiolos (Homo sapiens) (Q9UKT9 whole entry): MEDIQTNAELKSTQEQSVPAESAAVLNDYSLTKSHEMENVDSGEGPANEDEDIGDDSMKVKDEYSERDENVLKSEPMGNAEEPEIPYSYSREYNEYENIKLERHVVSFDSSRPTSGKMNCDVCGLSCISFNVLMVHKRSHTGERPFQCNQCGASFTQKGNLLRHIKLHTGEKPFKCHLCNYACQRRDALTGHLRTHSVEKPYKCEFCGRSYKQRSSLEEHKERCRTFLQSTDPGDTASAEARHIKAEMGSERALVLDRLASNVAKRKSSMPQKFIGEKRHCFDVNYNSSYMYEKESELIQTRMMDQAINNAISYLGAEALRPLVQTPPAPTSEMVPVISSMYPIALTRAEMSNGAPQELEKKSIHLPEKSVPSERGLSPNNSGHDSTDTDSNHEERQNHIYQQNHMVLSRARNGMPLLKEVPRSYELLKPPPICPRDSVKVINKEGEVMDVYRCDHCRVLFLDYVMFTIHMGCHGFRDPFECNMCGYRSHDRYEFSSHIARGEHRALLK

MDA-MB-231 [17] = test: Induction of apoptosis in human MDA-MB-231 cells assessed as early apoptotic cells at 100 nM incubated for 48 hrs by Annexin V-PE staining based flow cytometric analysis (reference value: 3.95 to 3.74%); assay type: functional
MDA-MB-231 [18] = test: Induction of cell cycle arrest in human MDA-MB-231 cells assessed as S phase cells at 33.3 nM incubated for 24 hrs by PI staining based flow cytometric analysis (reference value: 9.64 to 10.79%); assay type: functional
[19] = target: T1, Protein cereblon/Tyrosine-protein kinase receptor UFO; test: PROTAC activity at CRBN/AXL in human MDA-MB-231 cells assessed as induction of AXL degradation at 40 nM preincubated with MLN-4924 for 2 hrs followed by compound treatment and measured after 24 hrs by Western blot analysis; assay type: cell-based
MDA-MB-453 = test: Antiproliferative activity against human MDA-MB-453 cells assessed as inhibition of cell growth incubated for 72 hrs by CCK8 assay; assay type: functional, cell-based; settings: MDA-MB-453, 72 h
MDA-MB-436 = test: Antiproliferative activity against human MDA-MB-436 cells expressing AXL assessed as inhibition of cell growth incubated for 72 hrs by CCK8 assay; assay type: functional, cell-based; settings: MDA-MB-436, 72 h
Homo sapiens [20] = organism: Homo sapiens; test: Antitumor activity against patient-derived breast cancer organoid assessed as decrease in structure density at 5 uM incubated for 120 hrs by bright-field imaging microscopic analysis; assay type: functional, tissue-based
MDA-MB-231 [21] = test: Antiproliferative activity against human MDA-MB-231 cells expressing AXL assessed as inhibition of cell growth incubated for 72 hrs by CCK8 assay; assay type: functional, cell-based; settings: MDA-MB-231, 72 h
MDA-MB-231 [22] = test: Induction of cell cycle arrest in human MDA-MB-231 cells assessed as decrease in CDK2 level at 11.1 to 300 nM by Western blot analysis; assay type: functional, cell-based; settings: dose 11.1-300 nM
[23] = Antitumor activity against patient-derived breast cancer organoid assessed as reduction in cell viability incubated for 120 hrs by CellTiter-Glo 3D assay; assay type: functional, tissue-based; settings: Homo sapiens

SMILES: CCc1ccc2c(c1)c(=O)c(C(=O)Nc1ccc(Oc3ncnc4cc(OCCCCCC(=O)Nc5ccc6c(c5)CN(C5CCC(=O)NC5=O)C6=O)c(OC)cc34)c(F)c1)c(C)n2C (stereo not given)
- Activity (MDA-MB-231 [1]): 31.16%
- Activity (MDA-MB-231 [2]): 63.32%
- Activity (MDA-MB-231 [3]): Dose-Dependent Effect
- Activity [4]: inactive
- Activity (MDA-MB-231 [5]): 47.51%
- Activity (MDA-MB-231 [6]): Active
- inhibition [7]: Dose-Dependent Effect
- Activity [8]: inactive
- Activity [9]: inactive
- inhibition (MDA-MB-231 [10]): Dose-Dependent Effect
- Activity (MDA-MB-231 [11]): 0.88%
- Activity (MDA-MB-231 [12]): 4.59%
- Activity [13]: Active
- viability at 0.0333 µM (MDA-MB-231 [14]): 91.5%
- Activity (Homo sapiens [15]): Active
- Activity [16]: inactive
- Activity (MDA-MB-231 [17]): 14.51%
- Activity (MDA-MB-231 [18]): 14.52%
- Activity [19]: inactive
- pIC50 (MDA-MB-453): < 5.30
- pIC50 (MDA-MB-436): 8.30
- Activity (Homo sapiens [20]): Active
- pIC50 (MDA-MB-231 [21]): 8.00
- Activity (MDA-MB-231 [22]): Active
- pIC50 [23]: 7.70
